One series in a line: solubility in water. The class given is physicochemical. To be noted: for solubility in water: result in words, monohydrate.
Another series deals with heart failure. To be noted: people with heart failure; cited from earlier work.
Series [1] can be described thus: toxicity of the monohydrate of D-ribose.

Each structure is given as a SMILES string.

Consider `O=C[C@H](O)[C@H](O)[C@H](O)CO` [anhydrous D-ribose, D-ribose], for which the “water needed to dissolve a kilogram of anhydrous D-ribose” value in the series “solubility in water” (per kilogram of anhydrous D-ribose, gives clear translucent amber viscous solution if enough time is allowed) is “less than 168 grams”.

In the case of `CN(CC(=O)O)C(=N)N` [creatine], in the series with heart failure, the ejection fraction result is reported as “did not improve”; the skeletal muscle action result was “increasing both strength and endurance”.

Regarding `O.O=C[C@H](O)[C@H](O)[C@H](O)CO` [ribose monohydrate, D-ribose monohydrate], the solubility in water entry in “solubility in water” (listed as H2O-ribose product) is “exceptionally high”; in “solubility in water”, “very soluble in water”. Also, in series [1], the toxicity result is on record as “virtually no toxicity”.
